Reference: article PMC4412093, “Identification of a Novel Series of Potent TrkA Receptor Tyrosine Kinase Inhibitors” (International Journal of Medicinal Chemistry, 2012)

Legend:
TrkA [1] = conditions: read-out: TrkA IC50 (reported); cited from earlier work
TrkA [2] = test system: TrkA; design: method as in PMID 18646745, PMID 19509272; conditions: read-out: TrkA EC50 (reported); cited from earlier work
TrkA human enzyme = TrkA human enzyme (Homo sapiens, UniProt P04629); assay: TrkA kinase enzyme inhibition; assay type: biochemical; conditions: for IC50: average of ≥2 experiments; for inhibition at 0.1 µM / inhibition at 0.03 µM: average of ≥3 experiments; for inhibition at 0.1 µM: read-out: TrkA % inh. at 0.1 μM; for inhibition at 0.03 µM: 30 nM, read-out: TrkA % inh. at 30 nM
TrkA human enzyme, sequence (P04629 33-796): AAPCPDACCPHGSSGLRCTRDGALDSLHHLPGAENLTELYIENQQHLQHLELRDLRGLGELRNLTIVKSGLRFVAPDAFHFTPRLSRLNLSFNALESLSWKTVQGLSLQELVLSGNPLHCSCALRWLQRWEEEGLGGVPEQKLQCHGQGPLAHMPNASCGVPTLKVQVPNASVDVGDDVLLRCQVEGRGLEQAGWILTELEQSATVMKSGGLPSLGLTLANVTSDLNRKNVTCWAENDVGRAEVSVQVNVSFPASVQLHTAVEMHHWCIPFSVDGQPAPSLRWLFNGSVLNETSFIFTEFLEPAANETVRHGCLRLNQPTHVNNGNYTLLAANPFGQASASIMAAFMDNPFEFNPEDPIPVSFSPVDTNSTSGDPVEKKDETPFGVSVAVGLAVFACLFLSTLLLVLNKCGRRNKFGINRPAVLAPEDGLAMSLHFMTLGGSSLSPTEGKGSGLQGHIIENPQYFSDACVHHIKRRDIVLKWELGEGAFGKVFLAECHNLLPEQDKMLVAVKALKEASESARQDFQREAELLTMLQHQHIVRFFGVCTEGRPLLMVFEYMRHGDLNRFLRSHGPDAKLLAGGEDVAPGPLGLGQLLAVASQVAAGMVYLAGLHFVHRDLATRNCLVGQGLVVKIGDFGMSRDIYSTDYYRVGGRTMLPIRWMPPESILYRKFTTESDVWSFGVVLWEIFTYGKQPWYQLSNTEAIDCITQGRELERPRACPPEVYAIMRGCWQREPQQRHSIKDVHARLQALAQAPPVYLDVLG

VEGFR2 = VEGFR2 (Homo sapiens, UniProt P35968); assay: VEGFR2 kinase enzyme inhibition; assay type: biochemical; conditions: average of ≥3 experiments
VEGFR2, sequence (P35968 20-1356, species assumed): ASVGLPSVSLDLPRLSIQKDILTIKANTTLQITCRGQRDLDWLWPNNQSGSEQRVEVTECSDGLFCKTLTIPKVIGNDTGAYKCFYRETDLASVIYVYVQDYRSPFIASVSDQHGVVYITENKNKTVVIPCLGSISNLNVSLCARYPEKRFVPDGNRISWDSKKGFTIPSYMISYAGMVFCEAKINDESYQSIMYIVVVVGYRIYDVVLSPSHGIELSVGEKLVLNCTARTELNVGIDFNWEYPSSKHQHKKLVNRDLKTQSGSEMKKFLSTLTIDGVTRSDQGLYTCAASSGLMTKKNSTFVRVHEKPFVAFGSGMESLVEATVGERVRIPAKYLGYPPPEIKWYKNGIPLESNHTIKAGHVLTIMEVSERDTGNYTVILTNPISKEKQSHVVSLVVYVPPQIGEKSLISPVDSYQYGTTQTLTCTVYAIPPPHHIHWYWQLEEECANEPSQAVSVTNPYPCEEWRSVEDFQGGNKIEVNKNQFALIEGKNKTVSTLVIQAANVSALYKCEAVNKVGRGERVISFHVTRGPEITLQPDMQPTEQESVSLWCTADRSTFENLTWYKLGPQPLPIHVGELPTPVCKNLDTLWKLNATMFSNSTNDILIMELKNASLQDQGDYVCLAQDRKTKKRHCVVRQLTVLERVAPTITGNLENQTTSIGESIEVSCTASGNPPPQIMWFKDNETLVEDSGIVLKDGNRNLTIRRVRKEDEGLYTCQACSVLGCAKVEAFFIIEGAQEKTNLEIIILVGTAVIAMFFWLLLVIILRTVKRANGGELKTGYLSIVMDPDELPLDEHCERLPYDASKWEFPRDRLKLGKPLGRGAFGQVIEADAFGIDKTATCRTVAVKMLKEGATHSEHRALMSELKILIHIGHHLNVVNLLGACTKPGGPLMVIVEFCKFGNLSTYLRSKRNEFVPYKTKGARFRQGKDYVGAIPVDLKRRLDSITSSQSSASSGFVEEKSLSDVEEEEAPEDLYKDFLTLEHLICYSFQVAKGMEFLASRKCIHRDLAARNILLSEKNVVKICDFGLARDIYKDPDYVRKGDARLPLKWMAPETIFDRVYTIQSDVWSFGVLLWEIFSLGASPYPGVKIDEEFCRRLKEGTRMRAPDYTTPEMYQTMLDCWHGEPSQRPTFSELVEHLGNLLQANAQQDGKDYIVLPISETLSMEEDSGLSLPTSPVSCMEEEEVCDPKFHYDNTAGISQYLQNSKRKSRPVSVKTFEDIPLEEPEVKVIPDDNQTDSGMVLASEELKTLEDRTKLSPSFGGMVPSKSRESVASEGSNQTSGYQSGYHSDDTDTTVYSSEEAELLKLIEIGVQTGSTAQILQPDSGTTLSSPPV
Description: (§1) Table 1 2-Oxo-3-phenylimidazolidine-1-carboxamide kinase inhibitors based on different scaffolds.

c-Met [3] = target: T1, c-Met (Homo sapiens, UniProt P08581); assay: c-Met kinase enzyme inhibition; assay type: biochemical; conditions: average of ≥3 experiments
T1 sequence (P08581 25-1390): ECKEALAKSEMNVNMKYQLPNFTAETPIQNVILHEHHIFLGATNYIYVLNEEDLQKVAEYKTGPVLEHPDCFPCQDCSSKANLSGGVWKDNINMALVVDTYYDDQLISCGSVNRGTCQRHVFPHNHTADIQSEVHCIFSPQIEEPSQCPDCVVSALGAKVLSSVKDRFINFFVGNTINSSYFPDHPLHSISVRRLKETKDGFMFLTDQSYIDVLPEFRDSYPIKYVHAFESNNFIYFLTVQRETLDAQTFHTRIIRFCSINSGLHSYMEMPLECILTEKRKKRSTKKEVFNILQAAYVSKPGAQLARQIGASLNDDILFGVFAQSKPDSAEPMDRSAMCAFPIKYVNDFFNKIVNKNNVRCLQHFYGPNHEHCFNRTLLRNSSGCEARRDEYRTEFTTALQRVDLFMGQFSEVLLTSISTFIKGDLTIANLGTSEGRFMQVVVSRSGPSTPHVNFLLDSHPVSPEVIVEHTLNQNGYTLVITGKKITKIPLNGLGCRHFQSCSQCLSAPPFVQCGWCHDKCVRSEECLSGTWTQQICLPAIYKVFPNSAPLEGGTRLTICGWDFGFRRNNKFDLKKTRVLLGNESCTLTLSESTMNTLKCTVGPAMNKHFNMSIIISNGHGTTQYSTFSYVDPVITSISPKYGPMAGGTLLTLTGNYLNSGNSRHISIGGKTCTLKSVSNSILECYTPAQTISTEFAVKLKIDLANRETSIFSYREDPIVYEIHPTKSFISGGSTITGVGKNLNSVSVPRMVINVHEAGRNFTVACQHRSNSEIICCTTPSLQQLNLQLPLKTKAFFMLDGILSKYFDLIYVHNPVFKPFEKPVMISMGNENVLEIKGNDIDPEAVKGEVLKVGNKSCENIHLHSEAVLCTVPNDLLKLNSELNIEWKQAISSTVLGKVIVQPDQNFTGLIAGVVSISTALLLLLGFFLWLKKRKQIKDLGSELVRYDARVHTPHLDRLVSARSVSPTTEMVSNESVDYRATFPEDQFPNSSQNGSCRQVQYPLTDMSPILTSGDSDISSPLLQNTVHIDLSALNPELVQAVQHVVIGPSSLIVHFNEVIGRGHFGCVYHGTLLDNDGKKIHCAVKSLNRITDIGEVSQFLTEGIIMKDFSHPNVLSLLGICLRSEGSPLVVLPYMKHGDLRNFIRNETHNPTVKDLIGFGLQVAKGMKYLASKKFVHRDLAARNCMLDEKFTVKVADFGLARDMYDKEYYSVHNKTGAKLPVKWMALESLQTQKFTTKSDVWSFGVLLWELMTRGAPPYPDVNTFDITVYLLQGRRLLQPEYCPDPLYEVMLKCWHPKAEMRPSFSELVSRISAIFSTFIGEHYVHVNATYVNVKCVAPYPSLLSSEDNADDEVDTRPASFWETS
Description: as §1

PKBα = target: T2, PKBα (Homo sapiens, UniProt P31749); assay: Millipore Kinaseprofiler, PKBα; assay type: biochemical; conditions: tested at 100 nM
T2 construct: purchased Millipore (Kinaseprofiler assay service)
T2 sequence (P31749 whole entry): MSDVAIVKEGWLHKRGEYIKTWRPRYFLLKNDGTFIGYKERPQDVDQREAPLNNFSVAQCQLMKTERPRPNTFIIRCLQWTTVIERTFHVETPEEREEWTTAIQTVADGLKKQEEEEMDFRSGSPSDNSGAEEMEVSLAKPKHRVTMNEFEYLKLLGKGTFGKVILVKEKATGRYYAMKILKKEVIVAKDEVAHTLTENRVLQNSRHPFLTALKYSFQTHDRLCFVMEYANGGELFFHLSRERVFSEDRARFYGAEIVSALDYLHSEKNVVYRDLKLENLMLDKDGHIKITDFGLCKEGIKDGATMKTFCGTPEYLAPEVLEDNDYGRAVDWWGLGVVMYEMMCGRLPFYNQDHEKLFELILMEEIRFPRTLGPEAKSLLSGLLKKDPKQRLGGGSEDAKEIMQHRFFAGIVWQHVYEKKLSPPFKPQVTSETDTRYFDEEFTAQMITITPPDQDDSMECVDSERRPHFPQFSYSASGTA
Description: (§2) Compound 5 was profiled and tested at 100 nM against 24 other kinase enzymes using Millipore's Kinaseprofiler assay services.

c-Met [4] = target: T1, c-Met; assay: Millipore Kinaseprofiler, c-Met; assay type: biochemical; design: purchased Millipore (Kinaseprofiler assay service); conditions: tested at 100 nM
Description: as §2

Bmx = target: T3, Bmx (Homo sapiens, UniProt P51813); assay: Millipore Kinaseprofiler, Bmx; assay type: biochemical; conditions: tested at 100 nM
T3 construct: purchased Millipore (Kinaseprofiler assay service)
Description: as §2

Flt3 = target: T4, Flt3 (Homo sapiens, UniProt P36888); assay: Millipore Kinaseprofiler, Flt3; assay type: biochemical; conditions: tested at 100 nM
T4 construct: purchased Millipore (Kinaseprofiler assay service)
Description: as §2

Haspin = target: T5, Haspin (Homo sapiens, UniProt Q8TF76); assay: Millipore Kinaseprofiler, Haspin; assay type: biochemical; conditions: tested at 100 nM
T5 construct: purchased Millipore (Kinaseprofiler assay service)
T5 sequence (Q8TF76 whole entry): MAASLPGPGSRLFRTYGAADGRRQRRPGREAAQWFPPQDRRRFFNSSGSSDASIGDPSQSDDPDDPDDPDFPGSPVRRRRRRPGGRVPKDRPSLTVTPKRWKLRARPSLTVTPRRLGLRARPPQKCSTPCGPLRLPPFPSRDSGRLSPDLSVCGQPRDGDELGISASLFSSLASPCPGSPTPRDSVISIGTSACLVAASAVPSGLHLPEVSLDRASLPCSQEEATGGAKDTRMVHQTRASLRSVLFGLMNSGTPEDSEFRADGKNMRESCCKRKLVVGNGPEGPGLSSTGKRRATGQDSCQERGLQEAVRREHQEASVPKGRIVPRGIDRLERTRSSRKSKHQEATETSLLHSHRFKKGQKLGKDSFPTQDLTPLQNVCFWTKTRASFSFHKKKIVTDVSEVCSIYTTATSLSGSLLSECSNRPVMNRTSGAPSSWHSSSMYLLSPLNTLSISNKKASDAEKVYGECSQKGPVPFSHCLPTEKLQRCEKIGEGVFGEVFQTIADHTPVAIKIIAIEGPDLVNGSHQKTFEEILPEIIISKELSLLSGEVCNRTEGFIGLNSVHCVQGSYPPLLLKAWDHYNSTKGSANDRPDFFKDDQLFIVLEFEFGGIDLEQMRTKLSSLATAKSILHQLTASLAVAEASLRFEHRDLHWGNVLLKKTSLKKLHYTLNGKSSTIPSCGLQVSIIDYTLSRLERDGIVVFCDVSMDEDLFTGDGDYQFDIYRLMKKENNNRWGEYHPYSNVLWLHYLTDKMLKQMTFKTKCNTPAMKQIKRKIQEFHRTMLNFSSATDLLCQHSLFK
Description: as §2

CHK1 = target: T6, CHK1 (Homo sapiens, UniProt O14757); assay: Millipore Kinaseprofiler, CHK1; assay type: biochemical; conditions: tested at 100 nM
T6 construct: purchased Millipore (Kinaseprofiler assay service)
Description: as §2

FAK = target: T7, FAK (Homo sapiens, UniProt Q05397); assay: Millipore Kinaseprofiler, FAK; assay type: biochemical; conditions: tested at 100 nM
T7 construct: purchased Millipore (Kinaseprofiler assay service)
Description: as §2

c-Raf = target: T8, c-Raf (Homo sapiens, UniProt P04049); assay: Millipore Kinaseprofiler, c-Raf; assay type: biochemical; conditions: tested at 100 nM
T8 construct: purchased Millipore (Kinaseprofiler assay service)
Description: as §2

PDK1 = target: T9, PDK1 (Homo sapiens, UniProt O15530); assay: Millipore Kinaseprofiler, PDK1; assay type: biochemical; conditions: tested at 100 nM
T9 construct: purchased Millipore (Kinaseprofiler assay service)
Description: as §2

GSK3β = target: T10, GSK3β (Homo sapiens, UniProt P49841); assay: Millipore Kinaseprofiler, GSK3β; assay type: biochemical; conditions: tested at 100 nM
T10 construct: purchased Millipore (Kinaseprofiler assay service)
Description: as §2

Ret = target: T11, Ret (Homo sapiens, UniProt P07949); assay: Millipore Kinaseprofiler, Ret; assay type: biochemical; conditions: tested at 100 nM
T11 construct: purchased Millipore (Kinaseprofiler assay service)
Description: as §2

PI3-Kinaseβ = target: T12, PI3-Kinaseβ (Homo sapiens, UniProt P42338); assay: Millipore Kinaseprofiler, PI3-Kinaseβ; assay type: biochemical; conditions: tested at 100 nM
T12 construct: purchased Millipore (Kinaseprofiler assay service)
Description: as §2

MEK1 = target: T13, MEK1 (Homo sapiens, UniProt Q02750); assay: Millipore Kinaseprofiler, MEK1; assay type: biochemical; conditions: tested at 100 nM
T13 construct: purchased Millipore (Kinaseprofiler assay service)
Description: as §2

IKKβ = target: T14, IKKβ (Homo sapiens, UniProt O14920); assay: Millipore Kinaseprofiler, IKKβ; assay type: biochemical; conditions: tested at 100 nM
T14 construct: purchased Millipore (Kinaseprofiler assay service)
Description: as §2

Pim-1 = target: T15, Pim-1 (Homo sapiens, UniProt P11309); assay: Millipore Kinaseprofiler, Pim-1; assay type: biochemical; conditions: tested at 100 nM
T15 construct: purchased Millipore (Kinaseprofiler assay service)
T15 sequence (P11309 whole entry): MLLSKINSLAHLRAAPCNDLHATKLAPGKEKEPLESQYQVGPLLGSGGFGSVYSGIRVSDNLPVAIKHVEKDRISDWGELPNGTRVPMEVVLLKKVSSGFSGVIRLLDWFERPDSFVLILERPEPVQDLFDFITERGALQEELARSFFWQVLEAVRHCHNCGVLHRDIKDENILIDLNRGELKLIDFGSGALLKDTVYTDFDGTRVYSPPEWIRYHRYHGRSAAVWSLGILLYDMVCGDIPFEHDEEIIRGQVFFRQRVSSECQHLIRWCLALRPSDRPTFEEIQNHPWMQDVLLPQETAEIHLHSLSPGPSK
Description: as §2

EphB4 = target: T16, EphB4 (Homo sapiens, UniProt P54760); assay: Millipore Kinaseprofiler, EphB4; assay type: biochemical; conditions: tested at 100 nM
T16 construct: purchased Millipore (Kinaseprofiler assay service)
Description: as §2

LIMK1 = target: T17, LIMK1 (Homo sapiens, UniProt P53667); assay: Millipore Kinaseprofiler, LIMK1; assay type: biochemical; conditions: tested at 100 nM
T17 construct: purchased Millipore (Kinaseprofiler assay service)
Description: as §2

cKit = target: T18, cKit (Homo sapiens, UniProt P10721); assay: Millipore Kinaseprofiler, cKit; assay type: biochemical; conditions: tested at 100 nM
T18 construct: purchased Millipore (Kinaseprofiler assay service)
Description: as §2

Tie2 = target: T19, Tie2 (Homo sapiens, UniProt Q02763); assay: Millipore Kinaseprofiler, Tie2; assay type: biochemical; conditions: tested at 100 nM
T19 construct: purchased Millipore (Kinaseprofiler assay services)
Description: as §2

Ron = target: T20, Ron (Homo sapiens, UniProt Q04912); assay: Millipore Kinaseprofiler, Ron; assay type: biochemical; conditions: tested at 100 nM
T20 construct: purchased Millipore (Kinaseprofiler assay service)
Description: as §2

TrkB = TrkB (Homo sapiens, UniProt Q16620); assay: TrkB kinase inhibition; assay type: biochemical; conditions: tested at 10 nM
Description: as §2

ALK = target: T21, ALK (Homo sapiens, UniProt Q9UM73); assay: Millipore Kinaseprofiler, ALK; assay type: biochemical; conditions: tested at 100 nM
T21 construct: purchased Millipore (Kinaseprofiler assay service)
Description: as §2

JAK3 = target: T22, JAK3 (Homo sapiens, UniProt P52333); assay: Millipore Kinaseprofiler, JAK3; assay type: biochemical; conditions: tested at 100 nM
T22 construct: purchased Millipore (Kinaseprofiler assay service)
Description: as §2

[5] = Rat pharmacokinetic profile; assay type: in vivo
Description: Compound 5 was further evaluated for its pharmacokinetic properties in the rat (Table 5).

JAK2 = target: T23, JAK2 (Homo sapiens, UniProt O60674); assay: Millipore Kinaseprofiler, JAK2; assay type: biochemical; conditions: tested at 100 nM
T23 construct: purchased Millipore (Kinaseprofiler assay service)
Description: as §2

[6] = p.o. dose 5.25 mg/kg, dose-normalised

SMILES: CC(C)Oc1cc(Nc2nc(N[C@@H](C)c3ccc(F)cc3)ncc2Cl)n[nH]1 [AZ-23]
- IC50 (TrkA [1]): < 3 nM
- EC50 (TrkA [2]): 1 nM

SMILES: CNC(=O)Nc1ccc(Oc2cccc(NC(=O)N3CCN(c4ccc(F)cc4)C3=O)c2)cn1 [Cpd 16]
- IC50 (TrkA human enzyme): 2 nM

SMILES: O=C(NCCN1CCCC1)Nc1ccc(Oc2cccc(NC(=O)N3CCN(c4ccc(F)cc4)C3=O)c2)cn1 [Cpd 17]
- IC50 (TrkA human enzyme): 4 nM

SMILES: CNC(=O)Nc1ccc(Oc2cccc(NC(=O)N3CCN(c4ccccc4)C3=O)c2)cn1 [Cpd 15]
- IC50 (TrkA human enzyme): 5 nM

SMILES: Nc1ccc(Oc2cccc(NC(=O)N3CCN(c4ccccc4)C3=O)c2)cn1 [Cpd 13]
- IC50 (TrkA human enzyme): 20 nM

SMILES: Cc1ccc(Sc2cnc(Nc3cccc(Br)n3)s2)cc1C(=O)N1CCN(C(=O)CN)CC1 [Compound 20h]
- IC50 (TrkA [1]): 0.6 nM

SMILES: CCn1cnc(-c2cc3nccc(Oc4ccc(NC(=O)N5CCN(c6ccccc6)C5=O)cc4F)c3s2)c1 [Cpd 1]
- IC50 (VEGFR2): 10 nM
- IC50 (c-Met [3]): 20 nM
- inhibition at 0.1 µM (TrkA human enzyme): 82%

SMILES: CC(=O)Nc1ccc(Oc2ccc(Cl)c(NC(=O)N3CCN(c4ccccc4)C3=O)c2)cn1 [Cpd 12]
- inhibition at 0.03 µM (TrkA human enzyme): 0%

SMILES: NC(=O)Nc1snc(S[C@@H]2CCCCc3ccccc32)c1C(N)=O [Compound 5n]
- IC50 (TrkA [1]): < 1 nM

SMILES: CCNC(=O)OC(C)C1c2ccccc2-c2c3c(c4c([nH]c5ccccc54)c21)CNC3=O (stereo not shown) [Compound 12a]
- IC50 (TrkA [1]): 8 nM

SMILES: CC(=O)Nc1ccc(NC(=O)Nc2cccc(NC(=O)N3CCN(c4ccccc4)C3=O)c2)cn1 [Cpd 6]
- inhibition at 0.03 µM (TrkA human enzyme): 5%

SMILES: CC(=O)Nc1ccc(C#Cc2cccc(NC(=O)N3CCN(c4ccccc4)C3=O)c2)cn1 [Cpd 7]
- inhibition at 0.03 µM (TrkA human enzyme): 16%

SMILES: CC(=O)Nc1ccc(Oc2cc(NC(=O)N3CCN(c4ccccc4)C3=O)ccc2C)cn1 [Cpd 10]
- inhibition at 0.03 µM (TrkA human enzyme): 6%

SMILES: CC(=O)Nc1ccc(Oc2cccc(NC(=O)N3CCN(c4ccccc4)C3=O)c2)cn1 [Cpd 5]
- inhibition at 0.1 µM (PKBα): < 40%
- inhibition at 0.1 µM (c-Met [4]): < 40%
- inhibition at 0.1 µM (Bmx): < 40%
- inhibition at 0.1 µM (Flt3): 83%
- inhibition at 0.1 µM (Haspin): < 40%
- IC50 (VEGFR2): 2500 nM
- inhibition at 0.1 µM (CHK1): < 40%
- inhibition at 0.1 µM (FAK): < 40%
- inhibition at 0.1 µM (c-Raf): < 40%
- inhibition at 0.1 µM (PDK1): < 40%
- inhibition at 0.1 µM (GSK3β): < 40%
- inhibition at 0.1 µM (Ret): < 40%
- inhibition at 0.1 µM (PI3-Kinaseβ): < 40%
- inhibition at 0.1 µM (MEK1): < 40%
- IC50 (c-Met [3]): 310 nM
- inhibition at 0.1 µM (IKKβ): < 40%
- inhibition at 0.1 µM (Pim-1): < 40%
- inhibition at 0.1 µM (EphB4): < 40%
- inhibition at 0.1 µM (LIMK1): < 40%
- inhibition at 0.1 µM (cKit): < 40%
- inhibition at 0.1 µM (Tie2): < 40%
- inhibition at 0.03 µM (TrkA human enzyme): 96%
- inhibition at 0.1 µM (TrkA human enzyme): 98%
- IC50 (TrkA human enzyme): 4 nM
- inhibition at 0.1 µM (Ron): < 40%
- inhibition at 0.01 µM (TrkB): 40%
- inhibition at 0.1 µM (ALK): < 40%
- inhibition at 0.1 µM (JAK3): < 40%
- clearance ([5]; in vivo, iv, i.v. dose 2.58 mg/kg, read-out: Cl i.v. (converted)): 55 mL/min/kg
- half-life ([5]; in vivo, iv, i.v. dose 2.58 mg/kg, read-out: T1/2, i.v. (converted)): 1.5 h
- Vd ([5]; in vivo, iv, i.v. dose 2.58 mg/kg, read-out: Vss i.v.): 3.7 L/kg
- bioavailability ([5]; in vivo, oral, i.v. 2.58 mg/kg, p.o. 5.25 mg/kg): 99%
- Tmax ([5]; in vivo, po, p.o. dose 5.25 mg/kg): 4 h
- N. AUC, p.o. [5, 6]: 0.83 μM.h/(mg/kg)
- N. C max, p.o. [5, 6]: 0.08 μM/(mg/kg)
- inhibition at 0.1 µM (JAK2): < 40%

SMILES: O=C(Nc1cc(Oc2ccc(NC(=O)N3CCN(c4ccccc4)C3=O)cc2F)ccn1)N1CCCC1 [Cpd 4]
- IC50 (VEGFR2): 230 nM
- IC50 (c-Met [3]): 30 nM
- inhibition at 0.1 µM (TrkA human enzyme): 49%

SMILES: CC(=O)Nc1ccc(Oc2cccc(NC(=O)N3CCN(c4ccc(F)cc4)C3=O)c2)cn1 [Cpd 14]
- IC50 (TrkA human enzyme): 3 nM

SMILES: O=C(Nc1cc(Oc2ccc(NC(=O)N3CCN(c4ccccc4)C3=O)cc2F)ncn1)N1CCCC1 [Cpd 3]
- IC50 (VEGFR2): 150 nM
- IC50 (c-Met [3]): 50 nM
- inhibition at 0.1 µM (TrkA human enzyme): 16%

SMILES: COc1ccc(NC(=O)N2CCN(c3ccccc3)C2=O)cc1Oc1ccc(NC(C)=O)nc1 [Cpd 11]
- inhibition at 0.03 µM (TrkA human enzyme): 15%

SMILES: COc1cc2nccc(Oc3ccc(NC(=O)N4CCN(c5ccccc5)C4=O)cc3F)c2cc1OC [Cpd 2]
- IC50 (VEGFR2): 10 nM
- IC50 (c-Met [3]): 30 nM
- inhibition at 0.1 µM (TrkA human enzyme): 94%
